Data published in patent US8709764B2, “Enzymatic demethylation of flavonoids” (Universiteit Gent, priority 2005, dated 2014).

Legend:
[1] = Urinary IX and 8-PN excretion in axenic and Human Flora Associated (HFA) rats; format: in vivo, rat; details: 2 mg IX/kg body weight daily
Experimental: An experiment with axenic and Human Flora Associated (HFA) rats was performed to test the capacity of the selected strain of example 2 to activate methylated prenylflavonoids in vivo. A total of 12 axenic rats were used for the study. When the rats were 5 weeks old, 3 HFA rats were associated by oral gavage with a freshly voided, homogenized fecal culture which has prenylflavonoid demethylating activity. These HFA rats were designated PF+ rats.
At the same time, 3 HFA rats were associated by oral gavage with a freshly voided, homogenized fecal culture without prenylflavonoid demethylating activity. These HFA rats were designated PF− rats. The remaining rats were kept under sterile conditions. All rats were kept in separate, closed collective cages prior to the start of the experiment.
After 3 weeks of stabilization of the microbial cultures inside the rat intestine, a first experiment was started. After moving the rats to individual metabolism cages, 2 mg IX/kg body weight was daily administered to each rat for 5 days and each day 24 h-pooled urine was collected. After 3 days, the urinary IX and 8-PN excretion was quantified. […]
Herein, the 6 axenic rats were associated with the selected E. limosum strain of example 2 for 7 days by daily oral gavage with a log 9 bacterial suspension. […] On day 7, the urinary IX and 8-PN excretion was quantified.

[2] = test system: fecal culture B supplemented with E. limosum; experiment: Supplementation of selected E. limosum strain to non-converting fecal culture B incubated with IX; format: in vitro ADME, human
Experimental: The most efficient E. limosum strain, obtained from the selection experiment in example 2, was supplemented to the originally non-converting culture B of example 1, to examine the capacity of this strain to initiate the production of 8-PN in the complex environment of a fecal suspension. The strain was added to the culture in proportions ranging from 0% up to 100% (v/v). This mixture was incubated with 10% (v/v) of 25 mg/L IX for a period of seven days in Brain Heart Infusion broth (with 0.5 g/l cystein-HCl) under anaerobic conditions. The concentration of 8-PN was monitored every two days (FIG. 7).

human fecal cultures = experiment: Incubation of X or IX with human fecal cultures A-D for 8 days, conversion products detected by HPLC; format: in vitro ADME; details: fecal cultures A, B and D, 25 mg/l, 8 days
Experimental: Fecal slurries of 20% (w/v) fresh fecal samples were prepared by homogenizing the feces with phosphate buffered saline (0.1 M, pH 7) containing 1 g/l sodiumthioglycolate as reducing agent. The particulate material was removed by centrifugation (1 min, 500×g). The supernatant is hereafter called “the culture”.
(§1) The capacity of the cultures obtained from fecal samples A, B, C and D (further referred as cultures A-D) to degrade or transform the hop prenylflavonoid IX was tested by incubating the fecal cultures (10% (v/v)) in Brain Heart Infusion broth (with 0.5 g/l cystein-HCl) with 25 mg/l of isoxanthohumol for a period of 8 days under anaerobic conditions. Extracts of the incubations at days 0 and 8 were assayed for bioactive transformation products of IX using a Yeast Estrogenic Screen, according to De Boever et al. (2001) Env. Health Perspectives 109, 691-697, based on Routledge & Sumpter (1996) Environ. Toxicol. Chem. 15, 241-248. In brief, Saccharomyces cerevisiae, was transformed with the human estrogen receptor (ERα) gene, together with expression plasmids containing responsive elements and the lacZ reporter gene (encoding the enzyme β-galactosidase). β-galactosidase activity is quantified at 540 nm by the conversion of the chromogenic substance chlorophenol red-β-D-galactopyranoside into chlorophenol red. The bioassay response is expressed as the absorbance at 540 nm divided by the optical density at 630 nm [(A540/A630)net]. The estrogenic activity of the samples was expressed as percentage equivalence to 10 nM estradiol (E2) which elicited a 100% response in the estrogen receptor bioassay. The bioassays were performed in 96-well plates in which 10 μL of the test compounds were tested and incubated with 240 μL of the genetically modified yeast (optical density of 0.25 at 610 nm). Serial dilutions of the test compounds were made in dimethylsulfoxide, which allowed generating dose-response curves for doses (ordinate) versus activity (abscissa). The data were fitted by a 4 parametric logistic model using the Marquardt-Levenberg algorithm (Sigmaplot 4.0, SPSS Inc., Chicago, Ill., USA) (De Boever et al. (2001) Env. Health Perspectives 109, 691-697).
To further test this transformation, cultures A-D (10% (v/v)) were incubated for 8 days in Brain Heart Infusion broth (with 0.5 g/l cystein-HCl) with either X or IX at a concentration of 25 mg/l under anaerobic conditions and conversion products were detected by HPLC (Table 1). […] However, in culture C almost 40% of 8-PN was recovered, which explains the increase in estrogenic properties of culture C.

[3] = biological target: T1, human estrogen receptor (ERα) (Homo sapiens, UniProt P03372); experiment: Yeast Estrogenic Screen of extracts of fecal culture incubations with IX; format: cell-based
T1 construct: expressed in transfected cells; host or cells: Saccharomyces cerevisiae
T1 sequence (P03372 1-595): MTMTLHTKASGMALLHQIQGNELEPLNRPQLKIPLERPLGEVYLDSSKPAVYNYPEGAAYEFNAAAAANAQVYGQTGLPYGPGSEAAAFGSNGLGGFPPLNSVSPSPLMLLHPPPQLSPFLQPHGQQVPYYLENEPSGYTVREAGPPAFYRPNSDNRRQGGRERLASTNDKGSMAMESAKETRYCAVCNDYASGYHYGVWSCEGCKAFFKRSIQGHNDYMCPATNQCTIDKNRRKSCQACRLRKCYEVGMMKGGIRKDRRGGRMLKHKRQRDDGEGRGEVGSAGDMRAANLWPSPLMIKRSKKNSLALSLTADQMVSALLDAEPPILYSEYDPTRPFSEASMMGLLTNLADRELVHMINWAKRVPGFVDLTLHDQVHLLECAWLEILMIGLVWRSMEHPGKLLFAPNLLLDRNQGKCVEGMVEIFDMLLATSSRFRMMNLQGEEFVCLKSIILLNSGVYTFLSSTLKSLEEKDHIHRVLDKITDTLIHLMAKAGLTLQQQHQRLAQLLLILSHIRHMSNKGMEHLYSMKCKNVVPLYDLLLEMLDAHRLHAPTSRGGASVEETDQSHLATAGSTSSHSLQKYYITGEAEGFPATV
Experimental: as §1, with “The bioassays were performed in 96-well plates in which 10 μL of the test compounds were tested and incubated with 240 μL of the genetically modified yeast (optical density of 0.25 at 610 nm). Serial dilutions of the test compounds were made in dimethylsulfoxide, which allowed generating dose-response curves for doses (ordinate) versus activity (abscissa). The data were fitted by a 4 parametric logistic model using the Marquardt-Levenberg algorithm (Sigmaplot 4.0, SPSS Inc., Chicago, Ill., USA) (De Boever et al. (2001) Env. Health Perspectives 109, 691-697).” left out

## COc1cc(O)c(CC=C(C)C)c2c1C(=O)C[C@@H](c1ccc(O)cc1)O2 [IX, 5-O-methyl-8-prenylnaringenin]
[1]; PF+ HFA rats
  24 h-pooled urinary % 8-PN/(IX + 8-PN) excretion, Mean (Stdev): 55.3 (9.1) %
[1]; PF− HFA rats
  24 h-pooled urinary % 8-PN/(IX + 8-PN) excretion, Mean (Stdev): 23.6 (10.4) %
[2]; 1% supplementation of E. limosum, after one day
  Conversion of IX into 8-PN: half of the dosed IX was already transformed into 8-PN
[2]; equal amount of E. limosum culture and fecal sample (100% in FIG. 7)
  Conversion of IX into 8-PN: complete conversion of IX into 8-PN
Human fecal cultures
  Transformation of IX: recalcitrant to transformation
[3]; fecal culture C incubated with 25 mg/l IX, after 8 days
  Estrogenic response of incubation extracts: strong increase in the estrogenic properties
[3]; fecal cultures A-D incubated with 25 mg/l IX, day 0
  Estrogenic response of incubation extracts: None of the incubations showed an estrogenic response
